Measured values from US20260297080A1, “BICYCLIC COMPOUNDS AS CDK INHIBITORS” (BeOne Medicines I GmbH, priority 2022, published 2026).

Columns and labels:
CDK2/Cyclin E1 = CDK2/Cyclin E1 (Homo sapiens, UniProt P24941); assay: CDK2/Cyclin E1 Biochemical Assay (TR-FRET), 0.060 mM ATP; details: 0.15 μM Rb (Ser780)-biotin substrate, pH7.0, 60 min preincubation, 120 min reaction, room temperature
Outline: (§1)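 Kinase preincubated with compound (0–10 μM) 60 min at room temperature, then reaction started with ATP and 0.15 μM Rb (Ser780)-biotin peptide and run 120 min in HEPES pH 7.0 buffer with 50 mM MgCl2. Phospho-Rb detected by Eu-cryptate anti-pRb(Ser780)/streptavidin-XL665 TR-FRET (665/620 nm ratio); IC50 from four-parameter logistic fit.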

CDK1/Cyclin B1 = CDK1/Cyclin B1 (Homo sapiens, UniProt P06493); assay: CDK1/Cyclin B1 Biochemical Assay (TR-FRET), 0.015 mM ATP; details: 0.15 μM Rb (Ser780)-biotin substrate, pH7.0, 60 min preincubation, 120 min reaction, room temperature
CDK1/Cyclin B1, sequence (P06493 whole entry): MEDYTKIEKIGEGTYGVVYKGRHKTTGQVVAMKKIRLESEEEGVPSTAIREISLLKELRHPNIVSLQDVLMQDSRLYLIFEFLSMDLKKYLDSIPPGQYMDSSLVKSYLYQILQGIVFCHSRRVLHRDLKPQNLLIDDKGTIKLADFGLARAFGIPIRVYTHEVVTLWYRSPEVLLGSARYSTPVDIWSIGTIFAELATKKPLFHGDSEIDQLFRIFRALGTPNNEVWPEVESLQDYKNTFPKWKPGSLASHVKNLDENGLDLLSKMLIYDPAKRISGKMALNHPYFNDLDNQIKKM
CDK1/Cyclin B1, sequence (P14635 whole entry partner): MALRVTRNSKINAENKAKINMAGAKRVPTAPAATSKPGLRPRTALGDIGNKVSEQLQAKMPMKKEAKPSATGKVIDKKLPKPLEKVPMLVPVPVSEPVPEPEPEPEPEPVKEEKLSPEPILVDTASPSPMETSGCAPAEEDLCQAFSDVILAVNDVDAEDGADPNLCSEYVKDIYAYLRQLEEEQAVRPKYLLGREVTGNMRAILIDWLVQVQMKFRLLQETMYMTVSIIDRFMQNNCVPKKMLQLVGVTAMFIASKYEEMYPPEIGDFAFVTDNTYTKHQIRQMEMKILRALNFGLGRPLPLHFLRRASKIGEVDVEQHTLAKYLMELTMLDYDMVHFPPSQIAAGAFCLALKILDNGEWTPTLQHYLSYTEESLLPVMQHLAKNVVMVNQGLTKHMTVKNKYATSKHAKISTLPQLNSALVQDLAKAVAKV
Outline: as §1

IC50 (CDK2/Cyclin E1) [µM]	IC50 (CDK1/Cyclin B1) [µM]	SMILES
0.0013	0.065	CC1(NC(=O)O[C@H]2CC[C@@H](c3cc(Nc4ccc5c(c4F)CS(=O)(=O)N5CC(F)(F)F)n[nH]3)C2)CC1 (single isomer, unassigned) [Example 264a, cis-3-(3-((4-fluoro-2,2-dioxido-1-(2,2,2-trifluoroethyl)-1,3-dihydrobenzo[c]isothiazol-5-yl)amino)-1H-pyrazol-5-yl)cyclopentyl(1-methylcyclopropyl)carbamate]
0.0011	0.022	CC1(NC(=O)O[C@H]2CC[C@@H](c3cc(Nc4ccc5c(c4F)CS(=O)(=O)N5CC(F)(F)F)n[nH]3)C2)CC1 (single isomer, unassigned) [Example 264b, cis-3-(3-((4-fluoro-2,2-dioxido-1-(2,2,2-trifluoroethyl)-1,3-dihydrobenzo[c]isothiazol-5-yl)amino)-1H-pyrazol-5-yl)cyclopentyl(1-methylcyclopropyl)carbamate]
0.0016	0.041	CC[C@H](C)NC(=O)O[C@H]1CC[C@@H](c2cc(Nc3ccc4c(c3F)CS(=O)(=O)N4CC(F)(F)F)n[nH]2)C1 (single isomer, unassigned) [Example 265a]
0.0024	0.026	CC[C@H](C)NC(=O)O[C@H]1CC[C@@H](c2cc(Nc3ccc4c(c3F)CS(=O)(=O)N4CC(F)(F)F)n[nH]2)C1 (single isomer, unassigned) [Example 265b]
0.0078	0.142	[2H]C([2H])([2H])N1c2ccc(Nc3cc([C@@H]4CC[C@H](OC(=O)NC(C)C)C4)[nH]n3)c(F)c2CS1(=O)=O (single isomer, unassigned) [Example 267a, cis-3-(3-((4-fluoro-1-(methyl-d3)-2,2-dioxido-1,3-dihydrobenzo[c]isothiazol-5-yl)amino)-1H-pyrazol-5-yl)cyclopentyl isopropylcarbamate]
0.0064	0.073	[2H]C([2H])([2H])N1c2ccc(Nc3cc([C@@H]4CC[C@H](OC(=O)NC(C)C)C4)[nH]n3)c(F)c2CS1(=O)=O (single isomer, unassigned) [Example 267b, cis-3-(3-((4-fluoro-1-(methyl-d3)-2,2-dioxido-1,3-dihydrobenzo[c]isothiazol-5-yl)amino)-1H-pyrazol-5-yl)cyclopentyl isopropylcarbamate]
0.014	0.285	[2H]C([2H])([2H])N1c2ccc(Nc3cc([C@@H]4CC[C@H](OC(=O)NCCC)C4)[nH]n3)c(F)c2CS1(=O)=O (single isomer, unassigned) [Example 268a, cis-3-(3-((4-fluoro-1-(methyl-d3)-2,2-dioxido-1,3-dihydrobenzo[c]isothiazol-5-yl)amino)-1H-pyrazol-5-yl)cyclopentyl propylcarbamate]
0.004	0.075	[2H]C([2H])([2H])N1c2ccc(Nc3cc([C@@H]4CC[C@H](OC(=O)NCCC)C4)[nH]n3)c(F)c2CS1(=O)=O (single isomer, unassigned) [Example 268b, cis-3-(3-((4-fluoro-1-(methyl-d3)-2,2-dioxido-1,3-dihydrobenzo[c]isothiazol-5-yl)amino)-1H-pyrazol-5-yl)cyclopentyl propylcarbamate]
0.0032	0.172	CC(C)NC(=O)O[C@H]1CC[C@@H](c2cc(Nc3ccc4c(c3F)CS(=O)(=O)N4CCO)n[nH]2)C1 (single isomer, unassigned) [Example 271a, cis-3-(3-((4-fluoro-1-(2-hydroxyethyl)-2,2-dioxido-1,3-dihydrobenzo[c]isothiazol-5-yl)amino)-1H-pyrazol-5-yl)cyclopentyl isopropylcarbamate]
0.0018	0.049	CC(C)NC(=O)O[C@H]1CC[C@@H](c2cc(Nc3ccc4c(c3F)CS(=O)(=O)N4CCO)n[nH]2)C1 (single isomer, unassigned) [Example 271b, cis-3-(3-((4-fluoro-1-(2-hydroxyethyl)-2,2-dioxido-1,3-dihydrobenzo[c]isothiazol-5-yl)amino)-1H-pyrazol-5-yl)cyclopentyl isopropylcarbamate]
0.0155	0.146	CCCNC(=O)O[C@H]1CC[C@@H](c2cc(Nc3ccc4c(c3F)CS(=O)(=O)N4CCO)n[nH]2)C1 (single isomer, unassigned) [Example 272a, cis-3-(3-((4-fluoro-1-(2-hydroxyethyl)-2,2-dioxido-1,3-dihydrobenzo[c]isothiazol-5-yl)amino)-1H-pyrazol-5-yl)cyclopentyl propylcarbamate]
0.003	0.059	CCCNC(=O)O[C@H]1CC[C@@H](c2cc(Nc3ccc4c(c3F)CS(=O)(=O)N4CCO)n[nH]2)C1 (single isomer, unassigned) [Example 272b, cis-3-(3-((4-fluoro-1-(2-hydroxyethyl)-2,2-dioxido-1,3-dihydrobenzo[c]isothiazol-5-yl)amino)-1H-pyrazol-5-yl)cyclopentyl propylcarbamate]

Continued, molecule first:

SMILES	IC50 (CDK2/Cyclin E1) [µM]	IC50 (CDK1/Cyclin B1) [µM]
CC(C)NC(=O)O[C@H]1CC[C@@H](c2cc(Nc3ccc4c(c3F)CS(=O)(=O)N4C)n[nH]2)C1 (single isomer, unassigned) [Example 255a, cis-3-(3-((4-fluoro-1-methyl-2,2-dioxido-1,3-dihydrobenzo[c]isothiazol-5-yl)amino)-1H-pyrazol-5-yl)cyclopentyl isopropylcarbamate]	0.0029	0.133
CC(C)NC(=O)O[C@H]1CC[C@@H](c2cc(Nc3ccc4c(c3F)CS(=O)(=O)N4C)n[nH]2)C1 (single isomer, unassigned) [Example 255b, cis-3-(3-((4-fluoro-1-methyl-2,2-dioxido-1,3-dihydrobenzo[c]isothiazol-5-yl)amino)-1H-pyrazol-5-yl)cyclopentyl isopropylcarbamate]	0.0052	0.149
CCCNC(=O)O[C@H]1CC[C@@H](c2cc(Nc3ccc4c(c3F)CS(=O)(=O)N4C)n[nH]2)C1 (single isomer, unassigned) [Example 256a, cis-3-(3-((4-fluoro-1-methyl-2,2-dioxido-1,3-dihydrobenzo[c]isothiazol-5-yl)amino)-1H-pyrazol-5-yl)cyclopentyl propylcarbamate]	0.0053	0.334
CCCNC(=O)O[C@H]1CC[C@@H](c2cc(Nc3ccc4c(c3F)CS(=O)(=O)N4C)n[nH]2)C1 (single isomer, unassigned) [Example 256b, cis-3-(3-((4-fluoro-1-methyl-2,2-dioxido-1,3-dihydrobenzo[c]isothiazol-5-yl)amino)-1H-pyrazol-5-yl)cyclopentyl propylcarbamate]	0.004	0.13
CC(C)NC(=O)O[C@H]1CC[C@@H](c2cc(Nc3ccc4c(c3F)CS(=O)(=O)N4C3COC3)n[nH]2)C1 (single isomer, unassigned) [Example 259a, cis-3-(3-((4-fluoro-1-(oxetan-3-yl)-2,2-dioxido-1,3-dihydrobenzo[c]isothiazol-5-yl)amino)-1H-pyrazol-5-yl)cyclopentyl isopropylcarbamate]	0.0054	0.364
CC(C)NC(=O)O[C@H]1CC[C@@H](c2cc(Nc3ccc4c(c3F)CS(=O)(=O)N4C3COC3)n[nH]2)C1 (single isomer, unassigned) [Example 259b, cis-3-(3-((4-fluoro-1-(oxetan-3-yl)-2,2-dioxido-1,3-dihydrobenzo[c]isothiazol-5-yl)amino)-1H-pyrazol-5-yl)cyclopentyl isopropylcarbamate]	0.003	0.157
CCCNC(=O)O[C@H]1CC[C@@H](c2cc(Nc3ccc4c(c3F)CS(=O)(=O)N4C3COC3)n[nH]2)C1 (single isomer, unassigned) [Example 260a, cis-3-(3-((4-fluoro-1-(oxetan-3-yl)-2,2-dioxido-1,3-dihydrobenzo[c]isothiazol-5-yl)amino)-1H-pyrazol-5-yl)cyclopentyl propylcarbamate]	0.0059	0.27
CCCNC(=O)O[C@H]1CC[C@@H](c2cc(Nc3ccc4c(c3F)CS(=O)(=O)N4C3COC3)n[nH]2)C1 (single isomer, unassigned) [Example 260b, cis-3-(3-((4-fluoro-1-(oxetan-3-yl)-2,2-dioxido-1,3-dihydrobenzo[c]isothiazol-5-yl)amino)-1H-pyrazol-5-yl)cyclopentyl propylcarbamate]	0.0034	0.103
CC[C@H](C)NC(=O)O[C@H]1CC[C@@H](c2cc(Nc3ccc4c(c3F)CS(=O)(=O)N4C3COC3)n[nH]2)C1 (single isomer, unassigned) [Example 261a]	0.0013	0.119
CC[C@H](C)NC(=O)O[C@H]1CC[C@@H](c2cc(Nc3ccc4c(c3F)CS(=O)(=O)N4C3COC3)n[nH]2)C1 (single isomer, unassigned) [Example 261b]	0.0007	0.023
CC(C)NC(=O)O[C@H]1CC[C@@H](c2cc(Nc3ccc4c(c3F)CS(=O)(=O)N4CC(F)(F)F)n[nH]2)C1 (single isomer, unassigned) [Example 263a, cis-3-(3-((4-fluoro-2,2-dioxido-1-(2,2,2-trifluoroethyl)-1,3-dihydrobenzo[c]isothiazol-5-yl)amino)-1H-pyrazol-5-yl)cyclopentyl isopropylcarbamate]	0.0021	0.07
CC(C)NC(=O)O[C@H]1CC[C@@H](c2cc(Nc3ccc4c(c3F)CS(=O)(=O)N4CC(F)(F)F)n[nH]2)C1 (single isomer, unassigned) [Example 263b, cis-3-(3-((4-fluoro-2,2-dioxido-1-(2,2,2-trifluoroethyl)-1,3-dihydrobenzo[c]isothiazol-5-yl)amino)-1H-pyrazol-5-yl)cyclopentyl isopropylcarbamate]	0.0051	0.091
